Assay results taken from ChEMBL document CHEMBL2074363, “Human organic anion transporters mediate the transport of tetracycline” (Jpn J Pharmacol, 2002).

Legend:
Assay type in all cases: functional, cell-based
[1] = molecular target: T1, Organic anion transporter 3 (Homo sapiens, UniProt Q8TCC7); test: TP_TRANSPORTER: inhibition of E1S uptake (E1S: 0.05 uM, Doxycycline: 50 uM) in OAT3-expressing S2 cells; details: s2, 50 µM
T1 sequence (Q8TCC7 whole entry): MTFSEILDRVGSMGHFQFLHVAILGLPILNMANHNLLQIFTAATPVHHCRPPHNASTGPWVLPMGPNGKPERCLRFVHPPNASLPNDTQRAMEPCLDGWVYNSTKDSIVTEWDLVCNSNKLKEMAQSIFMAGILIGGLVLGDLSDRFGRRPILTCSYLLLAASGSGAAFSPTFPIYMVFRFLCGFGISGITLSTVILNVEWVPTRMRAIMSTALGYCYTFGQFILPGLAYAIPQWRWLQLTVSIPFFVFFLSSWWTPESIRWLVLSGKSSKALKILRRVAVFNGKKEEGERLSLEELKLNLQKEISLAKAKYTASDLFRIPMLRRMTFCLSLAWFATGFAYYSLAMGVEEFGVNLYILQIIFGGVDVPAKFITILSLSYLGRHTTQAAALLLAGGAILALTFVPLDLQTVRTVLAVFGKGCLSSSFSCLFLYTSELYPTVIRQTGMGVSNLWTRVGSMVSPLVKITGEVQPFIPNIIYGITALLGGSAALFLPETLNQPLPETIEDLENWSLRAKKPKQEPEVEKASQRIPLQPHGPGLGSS

[2] = molecular target: T2, Solute carrier family 22 member 11 (Homo sapiens, UniProt Q9NSA0); test: TP_TRANSPORTER: inhibition of E1S uptake (E1S: 0.05 uM, Doxycycline: 50 uM) in OAT4-expressing S2 cells; details: mouse, s2, 50 µM
T2 sequence (Q9NSA0 whole entry): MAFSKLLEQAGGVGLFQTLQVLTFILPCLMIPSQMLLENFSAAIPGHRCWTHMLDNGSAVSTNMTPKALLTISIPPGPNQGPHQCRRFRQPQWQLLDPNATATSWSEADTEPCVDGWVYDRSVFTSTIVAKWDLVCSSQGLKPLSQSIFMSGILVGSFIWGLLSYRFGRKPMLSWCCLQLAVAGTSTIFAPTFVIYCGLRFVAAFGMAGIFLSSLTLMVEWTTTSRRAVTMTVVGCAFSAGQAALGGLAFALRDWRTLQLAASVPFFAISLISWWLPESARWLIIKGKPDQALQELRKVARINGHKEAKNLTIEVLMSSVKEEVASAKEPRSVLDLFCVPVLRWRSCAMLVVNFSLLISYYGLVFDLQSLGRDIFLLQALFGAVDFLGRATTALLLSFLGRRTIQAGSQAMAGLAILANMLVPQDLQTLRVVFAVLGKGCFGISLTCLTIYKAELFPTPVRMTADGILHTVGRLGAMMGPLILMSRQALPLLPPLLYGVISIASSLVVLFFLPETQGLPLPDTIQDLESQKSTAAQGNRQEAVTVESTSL

[3] = molecular target: T3, Solute carrier family 22 member 6 (Homo sapiens, UniProt Q4U2R8); test: TP_TRANSPORTER: inhibition of PAH uptake (PAH: 5 uM, Doxycycline: 500 uM) in OAT1-expressing S2 cells; details: s2, 500 µM
T3 sequence (Q4U2R8 whole entry): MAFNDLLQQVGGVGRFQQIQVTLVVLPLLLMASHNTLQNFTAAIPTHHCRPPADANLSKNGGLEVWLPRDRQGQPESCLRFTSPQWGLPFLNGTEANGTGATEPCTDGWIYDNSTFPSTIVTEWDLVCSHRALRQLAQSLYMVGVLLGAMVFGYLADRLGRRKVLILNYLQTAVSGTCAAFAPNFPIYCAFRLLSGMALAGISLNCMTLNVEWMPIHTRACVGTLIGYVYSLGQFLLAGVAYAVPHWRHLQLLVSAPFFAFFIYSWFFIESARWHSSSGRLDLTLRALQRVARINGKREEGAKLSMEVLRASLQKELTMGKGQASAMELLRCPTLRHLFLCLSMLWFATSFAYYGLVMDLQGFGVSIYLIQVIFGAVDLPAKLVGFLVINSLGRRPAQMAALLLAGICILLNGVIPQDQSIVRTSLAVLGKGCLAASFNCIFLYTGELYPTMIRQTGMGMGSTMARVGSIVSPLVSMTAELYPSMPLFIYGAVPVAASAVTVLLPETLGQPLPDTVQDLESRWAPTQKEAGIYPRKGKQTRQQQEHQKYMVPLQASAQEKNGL

[4] = molecular target: T1, Organic anion transporter 3; test: TP_TRANSPORTER: inhibition of E1S uptake (E1S: 0.05 uM, Minocycline: 50 uM) in OAT3-expressing S2 cells; details: s2, 50 µM
[5] = molecular target: T2, Solute carrier family 22 member 11; test: TP_TRANSPORTER: inhibition of E1S uptake (E1S: 0.05 uM, Minocycline: 50 uM) in OAT4-expressing S2 cells; details: mouse, s2, 50 µM
[6] = molecular target: T4, Solute carrier family 22 member 7 (Homo sapiens, UniProt Q9Y694); test: TP_TRANSPORTER: inhibition of PGF2alpha uptake (PGF2alpha: 0.005 uM, Minocycline: 5 uM) in OAT2-expressing S2 cells; details: s2, 5 µM
T4 sequence (Q9Y694 whole entry): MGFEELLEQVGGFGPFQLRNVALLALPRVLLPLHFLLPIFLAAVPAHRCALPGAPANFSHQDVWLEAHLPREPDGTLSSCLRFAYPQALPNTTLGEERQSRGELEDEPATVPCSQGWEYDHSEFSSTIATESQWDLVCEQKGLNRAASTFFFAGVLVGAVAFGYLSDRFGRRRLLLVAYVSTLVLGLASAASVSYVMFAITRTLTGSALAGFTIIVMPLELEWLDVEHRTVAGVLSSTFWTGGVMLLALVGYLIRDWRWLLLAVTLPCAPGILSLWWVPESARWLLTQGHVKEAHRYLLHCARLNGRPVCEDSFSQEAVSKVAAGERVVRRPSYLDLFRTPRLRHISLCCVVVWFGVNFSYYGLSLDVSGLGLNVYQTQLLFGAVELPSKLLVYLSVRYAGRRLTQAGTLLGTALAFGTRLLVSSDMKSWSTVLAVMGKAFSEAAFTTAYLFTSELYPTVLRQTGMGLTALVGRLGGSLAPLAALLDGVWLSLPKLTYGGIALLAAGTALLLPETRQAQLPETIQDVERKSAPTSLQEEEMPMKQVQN

[7] = molecular target: T3, Solute carrier family 22 member 6; test: TP_TRANSPORTER: inhibition of PAH uptake (PAH: 5 uM, Minocycline: 500 uM) in OAT1-expressing S2 cells; details: s2, 500 µM
[8] = molecular target: T2, Solute carrier family 22 member 11; test: TP_TRANSPORTER: inhibition of E1S uptake (E1S: 0.05 uM, Oxytetracycline: 50 uM) in OAT4-expressing S2 cells; details: mouse, s2, 50 µM
[9] = molecular target: T3, Solute carrier family 22 member 6; test: TP_TRANSPORTER: inhibition of PAH uptake (PAH: 5 uM, Oxytetracycline: 500 uM) in OAT1-expressing S2 cells; details: mouse, s2, 500 µM
[10] = molecular target: T4, Solute carrier family 22 member 7; test: TP_TRANSPORTER: inhibition of PGF2alpha uptake (PGF2alpha: 0.005 uM, Oxytetracycline: 5 uM) in OAT2-expressing S2 cells; details: s2, 5 µM
[11] = molecular target: T1, Organic anion transporter 3; test: TP_TRANSPORTER: inhibition of E1S uptake (E1S: 0.05 uM, Oxytetracycline: 50 uM) in OAT3-expressing S2 cells; details: s2, 50 µM
[12] = molecular target: T2, Solute carrier family 22 member 11; test: TP_TRANSPORTER: inhibition of E1S uptake (E1S: 0.05 uM, Tetracycline: 50 uM) in OAT4-expressing S2 cells; details: mouse, s2, 50 µM
[13] = molecular target: T1, Organic anion transporter 3; test: TP_TRANSPORTER: inhibition of E1S uptake (E1S: 0.05 uM, Tetracycline: 50 uM) in OAT3-expressing S2 cells; details: mouse, s2, 50 µM
[14] = molecular target: T3, Solute carrier family 22 member 6; test: TP_TRANSPORTER: inhibition of PAH uptake (PAH: 5 uM, Tetracycline: 1000 uM) in OAT1-expressing S2 cells; details: s2, 1000 µM
[15] = molecular target: T4, Solute carrier family 22 member 7; test: TP_TRANSPORTER: inhibition of PGF2alpha uptake (PGF2alpha: 0.005 uM, Tetracycline: 5 uM) in OAT2-expressing S2 cells; details: mouse, s2, 5 µM
[16] = substrate: CN(C)[C@@H]1C(O)=C(C(N)=O)C(=O)[C@@]2(O)C(O)=C3C(=O)c4c(O)cccc4[C@@](C)(O)[C@H]3C[C@@H]12; test: TP_TRANSPORTER: uptake in OAT3-expressing S2 cells
[17] = substrate: CN(C)[C@@H]1C(O)=C(C(N)=O)C(=O)[C@@]2(O)C(O)=C3C(=O)c4c(O)cccc4[C@@](C)(O)[C@H]3C[C@@H]12; test: TP_TRANSPORTER: uptake in OAT4-expressing S2 cells
[18] = substrate: CN(C)[C@@H]1C(O)=C(C(N)=O)C(=O)[C@@]2(O)C(O)=C3C(=O)c4c(O)cccc4[C@@](C)(O)[C@H]3C[C@@H]12; test: TP_TRANSPORTER: uptake in OAT2-expressing S2 cells

C[C@H]1c2cccc(O)c2C(=O)C2=C(O)[C@]3(O)C(=O)C(C(N)=O)=C(O)[C@@H](N(C)C)[C@@H]3[C@@H](O)[C@@H]21.O [DOXYCYCLINE]
Activity [1]: is not an inhibitor [-]
Activity [2]: is not an inhibitor [-]
Activity [3]: inhibitor [(at a rough estimate) 25 % of control]

CN(C)c1ccc(O)c2c1C[C@H]1C[C@H]3[C@H](N(C)C)C(O)=C(C(N)=O)C(=O)[C@@]3(O)C(O)=C1C2=O [MINOCYCLINE]
Activity [4]: is not an inhibitor [-]
Activity [5]: is not an inhibitor [-]
Activity [6]: inhibitor [(at a rough estimate) 80 % of control]
Activity [7]: inhibitor [(at a rough estimate) 10 % of control]

CN(C)[C@@H]1C(O)=C(C(N)=O)C(=O)[C@@]2(O)C(O)=C3C(=O)c4c(O)cccc4[C@@](C)(O)[C@H]3[C@H](O)[C@@H]12 [OXYTETRACYCLINE]
Activity [8]: is not an inhibitor [-]
Activity [9]: inhibitor [(at a rough estimate) 20 % of control]
Activity [10]: inhibitor [(at a rough estimate) 80 % of control]
Activity [11]: is not an inhibitor [-]

CN(C)[C@@H]1C(O)=C(C(N)=O)C(=O)[C@@]2(O)C(O)=C3C(=O)c4c(O)cccc4[C@@](C)(O)[C@H]3C[C@@H]12 [TETRACYCLINE]
Activity [12]: inhibitor [(at a rough estimate) 75 % of control]
Activity [13]: is not an inhibitor [-]
Activity [14]: inhibitor [(at a rough estimate) 45 % of control]
Activity [15]: inhibitor [(at a rough estimate) 85 % of control]

B1: Organic anion transporter 3 (Homo sapiens) (protein)
chain: MTFSEILDRVGSMGHFQFLHVAILGLPILNMANHNLLQIFTAATPVHHCRPPHNASTGPWVLPMGPNGKPERCLRFVHPPNASLPNDTQRAMEPCLDGWVYNSTKDSIVTEWDLVCNSNKLKEMAQSIFMAGILIGGLVLGDLSDRFGRRPILTCSYLLLAASGSGAAFSPTFPIYMVFRFLCGFGISGITLSTVILNVEWVPTRMRAIMSTALGYCYTFGQFILPGLAYAIPQWRWLQLTVSIPFFVFFLSSWWTPESIRWLVLSGKSSKALKILRRVAVFNGKKEEGERLSLEELKLNLQKEISLAKAKYTASDLFRIPMLRRMTFCLSLAWFATGFAYYSLAMGVEEFGVNLYILQIIFGGVDVPAKFITILSLSYLGRHTTQAAALLLAGGAILALTFVPLDLQTVRTVLAVFGKGCLSSSFSCLFLYTSELYPTVIRQTGMGVSNLWTRVGSMVSPLVKITGEVQPFIPNIIYGITALLGGSAALFLPETLNQPLPETIEDLENWSLRAKKPKQEPEVEKASQRIPLQPHGPGLGSS
Km [16]: 566 µM

B2: Solute carrier family 22 member 11 (Homo sapiens) (protein)
chain: MAFSKLLEQAGGVGLFQTLQVLTFILPCLMIPSQMLLENFSAAIPGHRCWTHMLDNGSAVSTNMTPKALLTISIPPGPNQGPHQCRRFRQPQWQLLDPNATATSWSEADTEPCVDGWVYDRSVFTSTIVAKWDLVCSSQGLKPLSQSIFMSGILVGSFIWGLLSYRFGRKPMLSWCCLQLAVAGTSTIFAPTFVIYCGLRFVAAFGMAGIFLSSLTLMVEWTTTSRRAVTMTVVGCAFSAGQAALGGLAFALRDWRTLQLAASVPFFAISLISWWLPESARWLIIKGKPDQALQELRKVARINGHKEAKNLTIEVLMSSVKEEVASAKEPRSVLDLFCVPVLRWRSCAMLVVNFSLLISYYGLVFDLQSLGRDIFLLQALFGAVDFLGRATTALLLSFLGRRTIQAGSQAMAGLAILANMLVPQDLQTLRVVFAVLGKGCFGISLTCLTIYKAELFPTPVRMTADGILHTVGRLGAMMGPLILMSRQALPLLPPLLYGVISIASSLVVLFFLPETQGLPLPDTIQDLESQKSTAAQGNRQEAVTVESTSL
Km [17]: 123 µM

B3: Solute carrier family 22 member 7 (Homo sapiens) (protein)
chain: MGFEELLEQVGGFGPFQLRNVALLALPRVLLPLHFLLPIFLAAVPAHRCALPGAPANFSHQDVWLEAHLPREPDGTLSSCLRFAYPQALPNTTLGEERQSRGELEDEPATVPCSQGWEYDHSEFSSTIATESQWDLVCEQKGLNRAASTFFFAGVLVGAVAFGYLSDRFGRRRLLLVAYVSTLVLGLASAASVSYVMFAITRTLTGSALAGFTIIVMPLELEWLDVEHRTVAGVLSSTFWTGGVMLLALVGYLIRDWRWLLLAVTLPCAPGILSLWWVPESARWLLTQGHVKEAHRYLLHCARLNGRPVCEDSFSQEAVSKVAAGERVVRRPSYLDLFRTPRLRHISLCCVVVWFGVNFSYYGLSLDVSGLGLNVYQTQLLFGAVELPSKLLVYLSVRYAGRRLTQAGTLLGTALAFGTRLLVSSDMKSWSTVLAVMGKAFSEAAFTTAYLFTSELYPTVLRQTGMGLTALVGRLGGSLAPLAALLDGVWLSLPKLTYGGIALLAAGTALLLPETRQAQLPETIQDVERKSAPTSLQEEEMPMKQVQN
Km [18]: 440 µM
